Results as given in patent US9695155B2, “Herbicidal substituted pyrimidinyloxy benzene compounds” (E. I. DU PONT DE NEMOURS AND COMPANY, priority 2013, dated 2017).

Assays:
pigweed = test: Test C preemergence; format: in vivo, Amaranthus retroflexus; details: Amaranthus retroflexus, pre-emergence, preemergence, read-out: Pigweed plant response rating
Summary of the method: (§1)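 Rated visually on 0–100 (100 = complete control) after 13–15 days under glass. Treatments went onto freshly seeded loam/sand soil or onto emerged plants at the 1- to 4-leaf stage, using a surfactant-containing solvent formulation.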

Italian ryegrass [1] = test: Test A postemergence; format: in vivo, Lolium multiflorum; details: 0 to 100 scale where 0 is no effect and 100 is complete control
Summary of the method: (§2)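 Greenhouse pot test, loam/sand soil. Formulation: non-phytotoxic solvent mix plus surfactant. Pre: directed spray onto soil after sowing. Post: plants at 1–2 leaf, 2–10 cm. Rated visually vs untreated controls at ~10 d, 0 (no effect) to 100 (complete control).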

corn = test: Test C preemergence; format: in vivo, Zea mays; details: Zea mays, pre-emergence
Summary of the method: as §1

large (Lg) crabgrass = test: Test C preemergence; format: in vivo, Digitaria sanguinalis; details: Digitaria sanguinalis, pre-emergence
Summary of the method: as §1

Italian ryegrass [2] = test: Test A preemergence; format: in vivo, Lolium multiflorum; details: 0 to 100 scale where 0 is no effect and 100 is complete control
Summary of the method: as §2

blackgrass [3] = test: Test A postemergence; format: in vivo, Alopecurus myosuroides; details: 0 to 100 scale where 0 is no effect and 100 is complete control
Summary of the method: as §2

blackgrass [4] = test: Test C preemergence; format: in vivo, Alopecurus myosuroides; details: Alopecurus myosuroides, pre-emergence
Summary of the method: as §1

lambsquarters = test: Test C preemergence; format: in vivo, Chenopodium album; details: Chenopodium album, pre-emergence, preemergence, read-out: Lambsquarters plant response rating
Summary of the method: as §1

johnsongrass = test: Test C preemergence; format: in vivo, Sorghum halepense; details: Sorghum halepense, pre-emergence, preemergence, read-out: Johnsongrass plant response rating
Summary of the method: as §1

galium [5] = test: Test A postemergence; format: in vivo, Galium aparine; details: 0 to 100 scale where 0 is no effect and 100 is complete control
Summary of the method: as §2

oilseed rape = test: Test C preemergence; format: in vivo, Brassica napus; details: Brassica napus, pre-emergence, preemergence, read-out: Oilseed Rape plant response rating
Summary of the method: as §1

ragweed [6] = test: Test A preemergence; format: in vivo, Ambrosia elatior; details: 0 to 100 scale where 0 is no effect and 100 is complete control
Summary of the method: as §2

barnyardgrass = test: Test C preemergence; format: in vivo, Echinochloa crus-galli; details: Echinochloa crus-galli, pre-emergence
Summary of the method: as §1

yellow nutsedge = test: Test C preemergence; format: in vivo, Cyperus esculentus; details: Cyperus, pre-emergence, preemergence, read-out: Nutsedge, Yellow plant response rating
Summary of the method: as §1

ragweed [7] = test: Test C preemergence; format: in vivo, Ambrosia elatior; details: Ambrosia artemisiifolia, pre-emergence, preemergence, read-out: Ragweed plant response rating
Summary of the method: as §1

waterhemp = test: Test C preemergence; format: in vivo, Amaranthus rudis; details: Amaranthus tuberculatus, pre-emergence, preemergence, read-out: Waterhemp plant response rating
Summary of the method: as §1

giant foxtail = test: Test C preemergence; format: in vivo, Setaria faberii; details: Setaria faberi, pre-emergence
Summary of the method: as §1

galium [8] = test: Test C preemergence; format: in vivo, Galium aparine; details: Galium, pre-emergence
Summary of the method: as §1

[9] = 16 g ai/ha, scale 0 to 100 (0 no effect, 100 complete control)
[10] = 62 g ai/ha, scale 0 (no effect) to 100 (complete control)
[11] = 125 g ai/ha, scale 0 (no effect) to 100 (complete control)

FC(F)c1cn(-c2ccccc2Oc2ncc(Cl)cn2)nn1 [Compound 147, 5-chloro-2-[2-[4-(difluoromethyl)-1H-1,2,3-triazol-1-yl]phenoxy]pyrimidine]
pest or weed control at 16 g/ha (pigweed; [9]): 100%
pest or weed control at 62 g/ha (pigweed; [10]): 100%
pest or weed control at 125 g/ha (pigweed; [11]): 100%
Ryegrass, Italian plant response rating (Italian ryegrass [1]; 125 g ai/ha): 70
Plant response rating, Ryegrass, Italian (Italian ryegrass [1]; 500 g ai/ha): 90
plant injury at 16 g/ha (corn; 16 g ai/ha, preemergence, scale 0 to 100 (0 no effect, 100 complete control), read-out: Corn plant response rating): 0%
plant injury at 62 g/ha (corn; 62 g ai/ha, preemergence, scale 0 (no effect) to 100 (complete control), read-out: Corn plant response rating): 20%
plant injury at 125 g/ha (corn; 125 g ai/ha, preemergence, scale 0 (no effect) to 100 (complete control), read-out: Corn plant response rating): 35%
Corn plant response rating (crop injury, 0 = no effect, 100 = complete kill) at 31 g/ha (corn; Preemergence, 31 g ai/ha, scale 0 to 100, 0 no effect, 100 complete control): 0%
pest or weed control at 16 g/ha (large (Lg) crabgrass; 16 g ai/ha, preemergence, scale 0 to 100 (0 no effect, 100 complete control), read-out: Crabgrass, Large plant response rating): 98%
pest or weed control at 62 g/ha (large (Lg) crabgrass; 62 g ai/ha, preemergence, scale 0 (no effect) to 100 (complete control), read-out: Crabgrass, Large plant response rating): 100%
pest or weed control at 125 g/ha (large (Lg) crabgrass; 125 g ai/ha, preemergence, scale 0 (no effect) to 100 (complete control), read-out: Crabgrass, Large plant response rating): 100%
pest or weed control at 31 g/ha (large (Lg) crabgrass; Preemergence, 31 g ai/ha, scale 0 to 100, 0 no effect, 100 complete control, read-out: Plant response rating, Crabgrass, Large): 100%
Plant response rating, Ryegrass, Italian (Italian ryegrass [2]; 125 g ai/ha): 10
Ryegrass, Italian plant response rating (Italian ryegrass [2]; 500 g ai/ha): 100
Blackgrass plant response rating (blackgrass [3]; 125 g ai/ha): 100
Plant response rating, Blackgrass (blackgrass [3]; 500 g ai/ha): 100
pest or weed control at 16 g/ha (blackgrass [4]; 16 g ai/ha, preemergence, scale 0 to 100 (0 no effect, 100 complete control), read-out: Blackgrass plant response rating): 0%
pest or weed control at 62 g/ha (blackgrass [4]; 62 g ai/ha, preemergence, scale 0 (no effect) to 100 (complete control), read-out: Blackgrass plant response rating): 50%
pest or weed control at 125 g/ha (blackgrass [4]; 125 g ai/ha, preemergence, scale 0 (no effect) to 100 (complete control), read-out: Blackgrass plant response rating): 90%
pest or weed control at 31 g/ha (blackgrass [4]; Preemergence, 31 g ai/ha, scale 0 to 100, 0 no effect, 100 complete control, read-out: Plant response rating, Blackgrass): 40%
pest or weed control at 16 g/ha (lambsquarters; [9]): 100%
pest or weed control at 62 g/ha (lambsquarters; [10]): 100%
pest or weed control at 125 g/ha (lambsquarters; [11]): 100%
pest or weed control at 16 g/ha (johnsongrass; [9]): 10%
pest or weed control at 62 g/ha (johnsongrass; [10]): 80%
pest or weed control at 125 g/ha (johnsongrass; [11]): 90%
Galium plant response rating (galium [5]; 125 g ai/ha): 100
Plant response rating, Galium (galium [5]; 500 g ai/ha): 100
plant injury at 16 g/ha (oilseed rape; [9]): 100%
plant injury at 62 g/ha (oilseed rape; [10]): 100%
plant injury at 125 g/ha (oilseed rape; [11]): 100%
Plant response rating, Ragweed (ragweed [6]; 125 g ai/ha): 90
Ragweed plant response rating (ragweed [6]; 500 g ai/ha): 100
pest or weed control at 16 g/ha (barnyardgrass; 16 g ai/ha, preemergence, scale 0 to 100 (0 no effect, 100 complete control), read-out: Barnyardgrass plant response rating): 10%
pest or weed control at 62 g/ha (barnyardgrass; 62 g ai/ha, preemergence, scale 0 (no effect) to 100 (complete control), read-out: Barnyardgrass plant response rating): 90%
pest or weed control at 125 g/ha (barnyardgrass; 125 g ai/ha, preemergence, scale 0 (no effect) to 100 (complete control), read-out: Barnyardgrass plant response rating): 100%
pest or weed control at 31 g/ha (barnyardgrass; Preemergence, 31 g ai/ha, scale 0 to 100, 0 no effect, 100 complete control, read-out: Plant response rating, Barnyardgrass): 80%
pest or weed control at 16 g/ha (yellow nutsedge; [9]): 0%
pest or weed control at 62 g/ha (yellow nutsedge; [10]): 15%
pest or weed control at 125 g/ha (yellow nutsedge; [11]): 55%
pest or weed control at 16 g/ha (ragweed [7]; [9]): 75%
pest or weed control at 62 g/ha (ragweed [7]; [10]): 98%
pest or weed control at 125 g/ha (ragweed [7]; [11]): 100%
pest or weed control at 16 g/ha (waterhemp; [9]): 100%
pest or weed control at 62 g/ha (waterhemp; [10]): 100%
pest or weed control at 125 g/ha (waterhemp; [11]): 100%
pest or weed control at 16 g/ha (giant foxtail; 16 g ai/ha, preemergence, scale 0 to 100 (0 no effect, 100 complete control), read-out: Foxtail, Giant plant response rating): 70%
pest or weed control at 62 g/ha (giant foxtail; 62 g ai/ha, preemergence, scale 0 (no effect) to 100 (complete control), read-out: Foxtail, Giant plant response rating): 100%
pest or weed control at 125 g/ha (giant foxtail; 125 g ai/ha, preemergence, scale 0 (no effect) to 100 (complete control), read-out: Foxtail, Giant plant response rating): 100%
pest or weed control at 31 g/ha (giant foxtail; Preemergence, 31 g ai/ha, scale 0 to 100, 0 no effect, 100 complete control, read-out: Plant response rating, Foxtail, Giant): 100%
pest or weed control at 16 g/ha (galium [8]; 16 g ai/ha, preemergence, scale 0 to 100 (0 no effect, 100 complete control), read-out: Galium plant response rating): 90%
pest or weed control at 62 g/ha (galium [8]; 62 g ai/ha, preemergence, scale 0 (no effect) to 100 (complete control), read-out: Galium plant response rating): 98%
pest or weed control at 125 g/ha (galium [8]; 125 g ai/ha, preemergence, scale 0 (no effect) to 100 (complete control), read-out: Galium plant response rating): 98%
pest or weed control at 31 g/ha (galium [8]; Preemergence, 31 g ai/ha, scale 0 to 100, 0 no effect, 100 complete control, read-out: Plant response rating, Galium): 98%
